According to PMC4512978, “Synthesis and evaluation in rats of homologous series of [^18F]-labeled dopamine D2/3 receptor agonists based on the 2-aminomethylchroman scaffold as potential PET tracers” (EJNMMI Research, 2015):

Test system: D2/3R
Experiment: Kinetic analysis of PET data (1TCM, 2TCM, Logan, SRTM);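 for 2TCM BPND change relative to control: Raclopride 1 mg/kg intravenous pretreatment versus saline controls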;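 for SRTM BPND change relative to control: Raclopride 1 mg/kg intravenous pretreatment versus saline controls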
Format: in vivo, Sprague-Dawley rats
Set-up: key to SRTM BPND / 1TCM BPND / 2TCM BPND (VT-based): BPND = VT(target)/VT(cerebellum) − 1 (or SRTM, cerebellum reference); SRTM BPND change relative to control / 1TCM BPND change relative to control / 2TCM BPND change relative to control / Logan BPND change relative to control: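 Raclopride 1 mg/kg intravenous pretreatment versus saline controls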; 1TCM VT / 2TCM VT: unit not given here
Description: Kinetic analysis is described using the nomenclature proposed by Innis et al.. ROI TACs of [^18F]FEt-AMC13 were analyzed with one-tissue and two-tissue compartmental models of reversible binding (1TCM and 2TCM, respectively) to obtain individual rate constants. From these, the regional distribution volumes (VT) were calculated and compared to those obtained with Logan graphical analysis. Binding potentials (BPND) were calculated from the distribution ratios as VT (target) / VT (cerebellum) – 1, or estimated with the simplified reference tissue model (SRTM) using the cerebellum as reference region.
Metabolite-corrected plasma-derived arterial input function and whole blood time-activity curve were used for Logan, 1TCM, and 2TCM analyses. Fractional cerebral blood volume was set to 3.6 % [27]. For one rat in the raclopride-treated group, no input curves could be obtained; therefore, its PET data were only analyzed with SRTM.
Degree of D2/3R-specific binding of the tracers was characterized by BPND (as given above) or the specific binding ratio (SBR) given as target region activity/cerebellar activity - 1. Both were calculated under control conditions and in response to the raclopride challenge.

[1] = Hypothalamus, raclopride, listed as [18F]FEt-AMC13
[2] = Olfactory bulbs, raclopride, listed as [18F]FEt-AMC13

In the case of Oc1ccc2c(c1)O[C@@H](CNCc1ccc(OCC[18F])cc1)CC2 [[^18F]FEt-AMC13], the “2TCM k4” value (Hypothalamus, control rat D) is reported as 0.09 ± 0.01 min⁻¹, the “1TCM BPND” value (Hypothalamus, raclopride) is reported as 0.22±0.04 and the “1TCM BPND change relative to control” value (Hypothalamus, raclopride) is reported as -14%. The “1TCM VT” value (Hypothalamus, raclopride) was 5.38±0.38, the “2TCM BPND (VT-based)” value (Hypothalamus, raclopride) was 0.18 ± 0.06 and the “2TCM BPND change relative to control” value (Hypothalamus, raclopride) was −19%. For the same compound, the “2TCM VT” value (Hypothalamus, raclopride) was 5.83±0.34, the “Logan BPND” value (Hypothalamus, raclopride) was 0.16±0.04 and the “Logan BPND change relative to control” value (Hypothalamus, raclopride) was -25%. The “Logan VT” value (Hypothalamus, raclopride) was 5.76±0.26, the “SRTM BPND” value (Hypothalamus, raclopride) was 0.16 ± 0.04 and the “SRTM BPND change relative to control” value (Hypothalamus, raclopride) was −23%. For the same compound, the “2TCM BPND (VT-based)” value [1] was 0.18±0.06, the “2TCM BPND change relative to control” value [1] was -19% and the “SRTM BPND” value [1] was 0.16±0.04. For the same compound, the “SRTM BPND change relative to control” value [1] was “–23%”, the “1TCM BPND” value (Olfactory bulbs, control) was 0.07±0.16 and the “1TCM VT” value (Olfactory bulbs, control) was 4.99±0.62. For the same compound, the “2TCM BPND (VT-based)” value (Olfactory bulbs, control) was 0.08 ± 0.13, the “2TCM VT” value (Olfactory bulbs, control) was 5.45±0.52 and the “Logan BPND” value (Olfactory bulbs, control) was 0.12±0.12. The “Logan VT” value (Olfactory bulbs, control) was 5.64±0.57, the “SRTM BPND” value (Olfactory bulbs, control) was 0.10 ± 0.13 and the “1TCM K1” value (Olfactory bulbs, control rat A) was 0.55 ± 0.05 mL/g/min. The “1TCM k2” value (Olfactory bulbs, control rat A) was 0.12 ± 0.02 min⁻¹, the “2TCM K1” value (Olfactory bulbs, control rat A) was 3.58 ± 1.65 mL/g/min and the “2TCM k2” value (Olfactory bulbs, control rat A) was 9.75 ± 3.75 min⁻¹. For the same compound, the “2TCM k3” value (Olfactory bulbs, control rat A) was 1.20 ± 2.96 min⁻¹, the “2TCM k4” value (Olfactory bulbs, control rat A) was 0.09 ± 7.03 min⁻¹ and the “1TCM K1” value (Olfactory bulbs, control rat B) was 0.49 ± 0.02 mL/g/min. For the same compound, the “1TCM k2” value (Olfactory bulbs, control rat B) was 0.08 ± 0.01 min⁻¹, the “2TCM K1” value (Olfactory bulbs, control rat B) was 0.63 ± 0.07 mL/g/min and the “2TCM k2” value (Olfactory bulbs, control rat B) was 0.47 ± 0.34 min⁻¹. The “2TCM k3” value (Olfactory bulbs, control rat B) was 0.69 ± 0.56 min⁻¹, the “2TCM k4” value (Olfactory bulbs, control rat B) was 0.20 ± 0.04 min⁻¹ and the “1TCM K1” value (Olfactory bulbs, control rat C) was 0.44 ± 0.01 mL/g/min. The “1TCM k2” value (Olfactory bulbs, control rat C) was 0.09 ± 0.005 min⁻¹, the “2TCM K1” value (Olfactory bulbs, control rat C) was 0.59 ± 0.10 mL/g/min and the “2TCM k2” value (Olfactory bulbs, control rat C) was 0.68 ± 0.93 min⁻¹. For the same compound, the “2TCM k3” value (Olfactory bulbs, control rat C) was 1.07 ± 3.21 min⁻¹, the “2TCM k4” value (Olfactory bulbs, control rat C) was 0.23 ± 3.75 min⁻¹ and the “1TCM K1” value (Olfactory bulbs, control rat D) was 0.50 ± 0.03 mL/g/min. For the same compound, the “1TCM k2” value (Olfactory bulbs, control rat D) was 0.10 ± 0.01 min⁻¹, the “2TCM K1” value (Olfactory bulbs, control rat D) was 1.08 ± 0.20 mL/g/min and the “2TCM k2” value (Olfactory bulbs, control rat D) was 1.82 ± 0.90 min⁻¹. For the same compound, the “2TCM k3” value (Olfactory bulbs, control rat D) was 0.92 ± 0.31 min⁻¹, the “2TCM k4” value (Olfactory bulbs, control rat D) was 0.11 ± 0.01 min⁻¹ and the “1TCM BPND” value (Olfactory bulbs, raclopride) was -0.02±0.03. For the same compound, the “1TCM BPND change relative to control” value (Olfactory bulbs, raclopride) was -127%, the “1TCM VT” value (Olfactory bulbs, raclopride) was 4.36±0.55 and the “2TCM BPND (VT-based)” value (Olfactory bulbs, raclopride) was 0.01 ± 0.04. For the same compound, the “2TCM BPND change relative to control” value (Olfactory bulbs, raclopride) was −88%, the “2TCM VT” value (Olfactory bulbs, raclopride) was 5.02±0.61 and the “Logan BPND” value (Olfactory bulbs, raclopride) was 0.03±0.03. The “Logan BPND change relative to control” value (Olfactory bulbs, raclopride) was -74%, the “Logan VT” value (Olfactory bulbs, raclopride) was 5.14±0.43 and the “SRTM BPND” value (Olfactory bulbs, raclopride) was 0.11 ± 0.05. The “SRTM BPND change relative to control” value (Olfactory bulbs, raclopride) was “+10%”, the “2TCM BPND (VT-based)” value [2] was 0.01±0.04 and the “2TCM BPND change relative to control” value [2] was -88%. For the same compound, the “SRTM BPND” value [2] was 0.11±0.05, the “1TCM BPND” value (Pituitary, control) was 0.32±0.05 and the “1TCM VT” value (Pituitary, control) was 6.16±0.35. The “2TCM BPND (VT-based)” value (Pituitary, control) was 0.36 ± 0.07, the “2TCM VT” value (Pituitary, control) was 6.89±0.32 and the “Logan BPND” value (Pituitary, control) was 0.42±0.05. The “Logan VT” value (Pituitary, control) was 7.15±0.49, the “SRTM BPND” value (Pituitary, control) was 0.71 ± 0.32 and the “1TCM K1” value (Pituitary, control rat A) was 0.52 ± 0.05 mL/g/min. For the same compound, the “1TCM k2” value (Pituitary, control rat A) was 0.08 ± 0.02 min⁻¹, the “2TCM K1” value (Pituitary, control rat A) was 6.16 ± 6.57 mL/g/min and the “2TCM k2” value (Pituitary, control rat A) was 16.8 ± 16.5 min⁻¹. The “2TCM k3” value (Pituitary, control rat A) was 1.11 ± 15.04 min⁻¹, the “2TCM k4” value (Pituitary, control rat A) was 0.06 ± 22.82 min⁻¹ and the “1TCM K1” value (Pituitary, control rat B) was 0.63 ± 0.04 mL/g/min. For the same compound, the “1TCM k2” value (Pituitary, control rat B) was 0.10 ± 0.01 min⁻¹, the “2TCM K1” value (Pituitary, control rat B) was 1.23 ± 0.31 mL/g/min and the “2TCM k2” value (Pituitary, control rat B) was 1.62 ± 0.42 min⁻¹. The “2TCM k3” value (Pituitary, control rat B) was 0.99 ± 1.42 min⁻¹, the “2TCM k4” value (Pituitary, control rat B) was 0.12 ± 2.70 min⁻¹ and the “1TCM K1” value (Pituitary, control rat C) was 0.52 ± 0.02 mL/g/min. The “1TCM k2” value (Pituitary, control rat C) was 0.08 ± 0.01 min⁻¹, the “2TCM K1” value (Pituitary, control rat C) was 0.97 ± 0.34 mL/g/min and the “2TCM k2” value (Pituitary, control rat C) was 1.54 ± 0.73 min⁻¹. For the same compound, the “2TCM k3” value (Pituitary, control rat C) was 1.23 ± 2.61 min⁻¹, the “2TCM k4” value (Pituitary, control rat C) was 0.13 ± 4.28 min⁻¹ and the “1TCM K1” value (Pituitary, control rat D) was 0.67 ± 0.05 mL/g/min. The “1TCM k2” value (Pituitary, control rat D) was 0.12 ± 0.02 min⁻¹, the “2TCM K1” value (Pituitary, control rat D) was 1.38 ± 0.24 mL/g/min and the “2TCM k2” value (Pituitary, control rat D) was 1.48 ± 0.20 min⁻¹. For the same compound, the “2TCM k3” value (Pituitary, control rat D) was 0.69 ± 0.58 min⁻¹, the “2TCM k4” value (Pituitary, control rat D) was 0.11 ± 1.34 min⁻¹ and the “1TCM BPND” value (Pituitary, raclopride) was 0.18±0.05. The “1TCM BPND change relative to control” value (Pituitary, raclopride) was -38%, the “1TCM VT” value (Pituitary, raclopride) was 5.33±0.88 and the “2TCM BPND change relative to control” value (Pituitary, raclopride) was −23%. For the same compound, the “2TCM VT” value (Pituitary, raclopride) was 6.34±0.82, the “Logan BPND change relative to control” value (Pituitary, raclopride) was -26% and the “Logan VT” value (Pituitary, raclopride) was 6.53±0.44.
